pIC50: −log10 of the molar value.

The assay concerns the target T1, BTK (Homo sapiens, UniProt Q06187).
T1 construct: purchased Upstate 14-552
Put plainly: In vitro BTK kinase assay: BTK-POLYGAT-LS assay. Type of assay: biochemical. The conditions noted are these: 10 uM ATP, read-out: IC50 (10 uMATP).

T1 sequence (Q06187 whole entry): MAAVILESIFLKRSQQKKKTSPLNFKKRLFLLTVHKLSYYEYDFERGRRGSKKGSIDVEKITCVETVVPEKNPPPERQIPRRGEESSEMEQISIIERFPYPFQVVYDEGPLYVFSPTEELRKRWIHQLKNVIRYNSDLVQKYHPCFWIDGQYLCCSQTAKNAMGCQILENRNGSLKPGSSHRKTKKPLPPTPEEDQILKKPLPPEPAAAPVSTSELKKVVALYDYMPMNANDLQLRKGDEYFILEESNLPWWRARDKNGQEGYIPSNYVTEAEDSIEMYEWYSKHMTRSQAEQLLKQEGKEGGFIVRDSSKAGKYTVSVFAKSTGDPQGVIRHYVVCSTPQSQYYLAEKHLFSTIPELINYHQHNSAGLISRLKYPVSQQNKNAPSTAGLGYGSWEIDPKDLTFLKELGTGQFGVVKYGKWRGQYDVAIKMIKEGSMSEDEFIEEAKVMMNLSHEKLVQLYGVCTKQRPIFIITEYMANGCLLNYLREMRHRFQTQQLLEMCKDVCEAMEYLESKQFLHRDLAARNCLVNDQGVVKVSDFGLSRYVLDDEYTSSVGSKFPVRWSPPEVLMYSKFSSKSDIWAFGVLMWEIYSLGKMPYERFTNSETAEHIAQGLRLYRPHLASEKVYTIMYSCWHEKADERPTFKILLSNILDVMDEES

As to `O=C(NC1CCCc2cc(-c3ncnc4[nH]ncc34)ccc21)c1ccc(C(F)(F)F)c(F)c1` (stereo not shown) [Example I-91, N-(6-(1H-pyrazolo[3,4-d]pyrimidin-4-yl)-1,2,3,4-tetrahydronaphthalen-1-yl)-3-fluoro-4-(trifluoromethyl)benzamide], the pIC50 (usually the IC50 on a negative log10 scale, so that one unit is a factor of ten) is 7.00 to 8.00.

As to `O=C(NC1CCCc2cc(-c3ncnc4[nH]ncc34)ccc21)c1ccc(C(F)(F)F)c(Cl)c1` (stereo not shown) [Example I-92, N-(6-(1H-pyrazolo[3,4-d]pyrimidin-4-yl)-1,2,3,4-tetrahydronaphthalen-1-yl)-3-chloro-4-(trifluoromethyl)benzamide], the pIC50 is 6.00 to 7.00. Under `O=C(NC1CCCc2cc(-c3ncnc4[nH]ncc34)ccc21)c1ccc(Cl)c(Cl)c1` (stereo not shown) [Example I-93, N-(6-(1H-pyrazolo[3,4-d]pyrimidin-4-yl)-1,2,3,4-tetrahydronaphthalen-1-yl)-3,4-dichlorobenzamide] stands 7.00 to 8.00; under `Cc1nc(C(=O)NC2CCCc3cc(-c4ncnc5[nH]ncc45)ccc32)sc1C` (stereo not shown) [Example I-95, N-(6-(1H-pyrazolo[3,4-d]pyrimidin-4-yl)-1,2,3,4-tetrahydronaphthalen-1-yl)-4,5-dimethylthiazole-2-carboxamide], 6.00 to 7.00. Under `CC(C)c1csc(C(=O)NC2CCCc3cc(-c4ncnc5[nH]ncc45)ccc32)n1` (stereo not shown) [Example I-96, N-(6-(1H-pyrazolo[3,4-d]pyrimidin-4-yl)-1,2,3,4-tetrahydronaphthalen-1-yl)-4-isopropylthiazole-2-carboxamide] stands 7.00 to 8.00.

`O=C(NC1CCCc2cc(-c3ncnc4[nH]ncc34)ccc21)c1ccc(C(F)(F)F)cc1` (stereo not shown) [Example I-97, N-(6-(1H-pyrazolo[3,4-d]pyrimidin-4-yl)-1,2,3,4-tetrahydronaphthalen-1-yl)-4-(trifluoromethyl)benzamide]: the pIC50 was 7.00 to 8.00. With `CC(C)(C)c1csc(C(=O)N[C@@H]2CCCc3cc(-c4ncnc5[nH]ncc45)ccc32)n1` [Example I-99, (R)—N-(6-(1H-pyrazolo[3,4-d]pyrimidin-4-yl)-1,2,3,4-tetrahydronaphthalen-1-yl)-4-(tert-butyl)thiazole-2-carboxamide] the figure was more than 8.00; with `Cn1c(C(=O)NC2CCCc3cc(-c4ncnc5[nH]ncc45)ccc32)nc2ccccc21` (stereo not shown) [Example I-101, N-(6-(1H-pyrazolo[3,4-d]pyrimidin-4-yl)-1,2,3,4-tetrahydronaphthalen-1-yl)-1-methyl-1H-benzo[d]imidazole-2-carboxamide], 6.00 to 7.00. Under `Cc1cc(-c2ncnc3[nH]c(-c4cnn5c4CN(C)CC5)cc23)ccc1CNC(=O)c1cnc(C(C)(C)C)s1` [Example I-102, 2-(tert-butyl)-N-(2-methyl-4-(6-(5-methyl-4,5,6,7-tetrahydropyrazolo[1,5-a]pyrazin-3-yl)-7H-pyrrolo[2,3-d]pyrimidin-4-yl)benzyl)thiazole-5-carboxamide] stands more than 8.00; under `CC(C)(C)c1nnc(C(=O)NC2CCCc3cc(-c4ncnc5[nH]ncc45)ccc32)s1` (stereo not shown) [Example I-103, N-(6-(1H-pyrazolo[3,4-d]pyrimidin-4-yl)-1,2,3,4-tetrahydronaphthalen-1-yl)-5-(tert-butyl)-1,3,4-thiadiazole-2-carboxamide], 6.00 to 7.00. Turning to `CC(C)(C)C1CCC(C(=O)NC2CCCc3cc(-c4ncnc5[nH]ncc45)ccc32)CC1` (stereo not shown) [Example I-104, N-(6-(1H-pyrazolo[3,4-d]pyrimidin-4-yl)-1,2,3,4-tetrahydronaphthalen-1-yl)-4-(tert-butyl)cyclohexanecarboxamide], the negative logarithm of the IC50 (pIC50) was 6.00 to 7.00. With `O=C(N[C@@H]1CCCc2cc(-c3ncnc4[nH]ncc34)ccc21)[C@H]1CC[C@H](C(F)(F)F)CC1` [Example I-105, trans-N—((R)-6-(1H-pyrazolo[3,4-d]pyrimidin-4-yl)-1,2,3,4-tetrahydronaphthalen-1-yl)-4-(trifluoromethyl)cyclohexanecarboxamide] the figure was 6.00 to 7.00; with `O=C(NC1CCCc2cc(-c3ncnc4[nH]ncc34)ccc21)c1nc2ccccc2s1` (stereo not shown) [Example I-106, N-(6-(1H-pyrazolo[3,4-d]pyrimidin-4-yl)-1,2,3,4-tetrahydronaphthalen-1-yl)benzo[d]thiazole-2-carboxamide], 7.00 to 8.00. Under `O=C(NC1CCCc2cc(-c3ncnc4[nH]ncc34)ccc21)c1cc2c(s1)CCCC2` (stereo not shown) [Example I-107, N-(6-(1H-pyrazolo[3,4-d]pyrimidin-4-yl)-1,2,3,4-tetrahydronaphthalen-1-yl)-4,5,6,7-tetrahydrobenzo[b]thiophene-2-carboxamide] stands more than 8.00; under `O=C(NCc1ccc(-c2ncnc3[nH]ncc23)cc1C(F)(F)F)c1nc2c(s1)CCCC2` [Example I-108, N-(4-(1H-pyrazolo[3,4-d]pyrimidin-4-yl)-2-(trifluoromethyl)benzyl)-4,5,6,7-tetrahydrobenzo[d]thiazole-2-carboxamide], 7.00 to 8.00.

On to `O=C(NCc1ncc(-c2ncnc3[nH]ncc23)cc1F)c1cc2c(s1)CCCC2` [Example I-109, N-((3-fluoro-5-(1H-pyrazolo[3,4-d]pyrimidin-4-yl)pyridin-2-yl)methyl)-4,5,6,7-tetrahydrobenzo[b]thiophene-2-carboxamide], for which the pIC50 was 6.00 to 7.00.

On to `O=C(NCc1ncc(-c2ccnc3[nH]ncc23)cc1F)c1cc2c(s1)CCCC2` [Example I-110, N-((3-fluoro-5-(1H-pyrazolo[3,4-b]pyridin-4-yl)pyridin-2-yl)methyl)-4,5,6,7-tetrahydrobenzo[b]thiophene-2-carboxamide], for which the pIC50 is 7.00 to 8.00. With `CC(C)(C)c1ccc(C(=O)NCc2ccc(-c3ncnc4[nH]c(-c5ccc(C(=O)N6CCOCC6)cc5)cc34)cc2)cc1` [Example I-111, 4-(tert-butyl)-N-(4-(6-(4-(morpholine-4-carbonyl)phenyl)-7H-pyrrolo[2,3-d]pyrimidin-4-yl)benzyl)benzamide] the figure was more than 8.00; with `CC(NC(=O)c1cnc(C(C)(C)C)s1)c1ccc(-c2ncnc3cc(-c4cnn(C)c4)[nH]c23)cc1` (stereo not shown) [Example I-114, 2-(tert-butyl)-N-(1-(4.-(6-(1-methyl-1H-pyrazol-4-yl)-5H-pyrrolo[3,2-d]pyrimidin-4-yl)phenyl)ethyl)thiazole-5-carboxamide], more than 8.00; with `Cc1cc(-c2ccnc3[nH]ncc23)ncc1CNC(=O)c1cc2c(s1)CCCC2` [Example I-117, N-((4-methyl-6-(1H-pyrazolo[3,4-b]pyridin-4-yl)pyridin-3-yl)methyl)-4,5,6,7-tetrahydrobenzo[b]thiophene-2-carboxamide], more than 8.00. As to `Cc1nc(-c2ccnc3[nH]ncc23)ccc1CNC(=O)c1cc2c(s1)CCCC2` [Example I-118, N-((2-methyl-6-(1H-pyrazolo[3,4-b]pyridin-4-yl)pyridin-3-yl)methyl)-4,5,6,7-tetrahydrobenzo[b]thiophene-2-carboxamide], the pIC50 is more than 8.00. With `O=C(NC1CCCc2cc(-c3ncnc4[nH]ncc34)ccc21)c1cc2ccccc2s1` (stereo not shown) [Example I-120, N-(6-(1H-pyrazolo[3,4-d]pyrimidin-4-yl)-1,2,3,4-tetrahydronaphthalen-1-yl)benzo[b]thiophene-2-carboxamide] the figure was more than 8.00; with `Cc1cc(-c2ncnc3[nH]ncc23)ccc1C(C)NC(=O)c1cc2c(s1)CCCC2` (stereo not shown) [Example I-121, N-(1-(2-methyl-4-(1H-pyrazolo[3,4-d]pyrimidin-4-yl)phenyl)ethyl)-4,5,6,7-tetrahydrobenzo[b]thiophene-2-carboxamide], more than 8.00; with `Cc1cc(-c2ncnc3cc[nH]c23)ccc1C(C)NC(=O)c1cc2c(s1)CCCC2` (stereo not shown) [Example I-123, N-(1-(2-methyl-4-(5H-pyrrolo[3,2-d]pyrimidin-4-yl)phenyl)ethyl)-4,5,6,7-tetrahydrobenzo[b]thiophene-2-carboxamide], 7.00 to 8.00. With `Cc1cc(-c2ncnc3nc(N4CCOC(C(=O)O)C4)[nH]c23)ccc1CNC(=O)c1cnc(C(C)(C)C)s1` (stereo not shown) [Example I-124, 4-(6-(4-((2-(tert-butyl)thiazole-5-carboxamido)methyl)-3-methylphenyl)-7H-purin-8-yl)morpholine-2-carboxylic acid] the figure was 7.00 to 8.00.

On to `Cc1cc(-c2ncnc3[nH]ncc23)cnc1CNC(=O)c1cc2c(s1)CCCC2` [Example I-125, N-((3-methyl-5-(1H-pyrazolo[3,4-d]pyrimidin-4-yl)pyridin-2-yl)methyl)-4,5,6,7-tetrahydrobenzo[b]thiophene-2-carboxamide], for which the pIC50 is 7.00 to 8.00. In the case of `Cc1cc(-c2ccnc3[nH]ccc23)cnc1CNC(=O)c1cc2c(s1)CCCC2` [Example I-126, N-((3-methyl-5-(1H-pyrrolo[2,3-b]pyridin-4-yl)pyridin-2-yl)methyl)-4,5,6,7-tetrahydrobenzo[b]thiophene-2-carboxamide], the negative logarithm of the IC50 (pIC50) is 7.00 to 8.00. With `Cc1cc(-c2ncnc3[nH]ncc23)ccc1C(C)NC(=O)c1nc2c(s1)CCCC2` (stereo not shown) [Example I-127, N-(1-(2-methyl-4-(1H-pyrazolo[3,4-d]pyrimidin-4-yl)phenyl)ethyl)-4,5,6,7-tetrahydrobenzo[d]thiazole-2-carboxamide] the figure was 7.00 to 8.00; with `Cc1cc(-c2ncnc3[nH]ncc23)ccc1C(C)NC(=O)c1cnc(C(C)(C)C)s1` (stereo not shown) [Example I-128, 2-(tert-butyl)-N-(1-(2-methyl-4-(1H-pyrazolo[3,4-d]pyrimidin-4-yl)phenyl)ethyl)thiazole-5-carboxamide], 7.00 to 8.00; with `CC(C)(C)c1ncc(C(=O)NC2CCCc3cc(-c4ncnc5cc[nH]c45)ccc32)s1` (stereo not shown) [Example I-129, N-(6-(5H-pyrrolo[3,2-d]pyrimidin-4-yl)-1,2,3,4-tetrahydronaphthalen-1-yl)-2-(tert-butyl)thiazole-5-carboxamide], 7.00 to 8.00. `O=C(NC1CCCc2cc(-c3ncnc4[nH]ncc34)ccc21)c1nc2c(s1)CCC2` (stereo not shown) [Example I-130, N-(6-(1H-pyrazolo[3,4-d]pyrimidin-4-yl)-1,2,3,4-tetrahydronaphthalen-1-yl)-5,6-dihydro-4H-cyclopenta[d]thiazole-2-carboxamide]: the negative-log IC50 (pIC50) was 7.00 to 8.00.

For the origin of these results see patent publication US10280169B2, “Biaryl bruton's tyrosine kinase inhibitors” (BIOGEN MA INC., priority 2013, dated 2019).
